Data set [1] can be described thus: Dynamic vapor sorption (DVS) hygroscopicity. Type of data set: physicochemical. Particulars: at 80% RH, 25° C. As for the experimental part:
Form A may be observed EP-1. […] (peak temperature) which is accompanied by 5.9 wt % weight loss up to ˜150° C. in the TGA curve (FIG. 3). […] Form A is hygroscopic as indicated by water adsorption of 5.8 wt % at 80% RH measured by dynamic vapor sorption (DVS) (FIG. 4). A solid is considered moderately hygroscopic when water uptake at 25° C./80% RH is between 2-15 wt % based on criteria of European Pharmacopeia.
Form B of EP-1 trihydrate (x is 3) is a trihydrate as confirmed by single crystal analysis. The experimental XRPD pattern of Form B matches well with the simulated one from single crystal data (FIG. 6). This was also confirmed by DSC and TGA data (FIG. 7 and FIG. 8, respectively). DSC data indicates Form B dehydrates at ˜132° C. […] Form B is slightly hygroscopic as evidenced by a weight change of ˜0.3% between 0% and 95% RH (FIG. 9), (data collection was programmed from 95% RH-0% RH-95% RH at a step size of 10% RH at 25° C.).

Data set [2] is described as follows: Solubility in Simulated Gastric Fluid (SGF) at 37° C. Format: physicochemical. As for the experimental part: To study if Form A and Form B would perform differently in stomach, the solubilities of Form A and Form B were measured in Simulated Gastric Fluid (SGF, see below for SGF preparation) at 37° C. In these experiments, about 100 mg Form A and 50 mg Form B were weighed into 20-ml glass vials, followed by addition of 4 ml SGF into each vial and the samples were stirred at 37° C. Aliquots were taken for solubility determination using HPLC after 15, 30, and 60 min, respectively. The remaining solids after each time point were subject to XRPD analysis.
Weigh appropriate amount of hydrochloride (HCl) and sodium chloride (NaCl) into a 1-L flask followed by addition of 1-L deionized water. The mixture was stirred until all solids are dissolved. Check pH value with a pH-meter and adjust the pH to 1.8 with HCl (1N) or NaOH (1N).

Regarding `CC(C)N(CC1O[C@@H](n2cnc3c(N)ncnc32)[C@H](O)[C@@H]1O)C1CC(CCc2nc3cc(C(C)(C)C)ccc3[nH]2)C1` (stereo partly drawn) [Form A, (2R,3R,4S,5R)-2-(6-amino-9H-purin-9-yl)-5-((((1r,3S)-3-(2-(5-(tert-butyl)-1H-benzo[d]imidazol-2-yl)ethyl)cyclobutyl)(isopropyl)amino)methyl)tetrahydrofuran-3,4-diol hydrate], the water adsorption in data set [1] came to 5.8 wt %. Moreover, the “time of conversion to Form B in SGF” value in data set [2] is on record as ≤ 15 min. In addition, the solubility (usually the dissolved amount per volume that the medium holds) at 15 min in data set [2] (Simulated Gastric Fluid (SGF), pH 1.8, simulated gastric fluid, thermodynamic from solid, 15 min, calculated using free base content) was 5400 µg/mL. For the same compound, the solubility at 30 min in data set [2] (Simulated Gastric Fluid (SGF), pH 1.8, simulated gastric fluid, thermodynamic from solid, 30 min, calculated using free base content) is 5500 µg/mL. Also, the solubility at 60 min in data set [2] (Simulated Gastric Fluid (SGF), pH 1.8, simulated gastric fluid, thermodynamic from solid, 60 min, calculated using free base content) is 5300 µg/mL.
